Tests used:
PAIGB expression = test: Real time PCR of PAIGB in brain, kidney and heart after intermittent PTH; type: in vivo, rat; conditions: intermittent injection
Excerpt: Applicants performed multiplex real time PCR (TaqMan) analysis on previously DNAsed samples using gene specific probe and primers and 18S ribosomal RNA probe and primer sets purchased from Applied Biosystem. (Foster City, Calif.) The samples were DNAsed according to the protocol provided by Ambion (DNA-free kit). TaqMan probe and primers for PAIGB was identify using Primer Express computer program. The sequence for rat PAIGB TaqMan probe was 6FAM-5′[…] (SEQ ID NO: 16) forward and reverse primers were 5′[…] 3′ (SEQ ID NO:17) and 5′ […] 3′ (SEQ ID NO:18) respectively. The final concentrations for probes were 500 nM and 40 nM for PAIGB and 18S ribosomal RNA or GAPDH respectively. The concentrations of the primers were 500 nM for PAIGB forward and reversed primers while 18S primers were 10 and 20 nM for forward and reversed primer respectively or 40 nM for GAPDH primers. Standards for rat samples were made from rat tibia or brain RNA in the range of 250 ng to 0.1 ng, while standards for mouse specific TaqMan were made from mouse brain RNA and human standards from human brain RNA (Clonetech, Palo Alto, Calif.) spanning the same range of concentration. Primers and probes for mouse PAIGB were: forward 5′ […] 3′ (SEQ ID NO:19), reverse, 5′ […] 3′ (SEQ ID NO:20) anti-sense and probe 5′ 6FAM-[…] (SEQ ID NO:21). Primers and probes for human PAIGB were: forward 5′ […] 3′ (SEQ ID NO:22), reverse 5′ […] […]

[1] = tested on: PAIGB expression in ROS 17/2.8 cells; test: Real time PCR of PAIGB expression in ROS 17/2.8 cells; type: cell-based, rat; conditions: 10 nM
Excerpt: Applicants performed multiplex real time PCR (TaqMan) analysis on previously DNAsed samples using gene specific probe and primers and 18S ribosomal RNA probe and primer sets purchased from Applied Biosystem. (Foster City, Calif.) The samples were DNAsed according to the protocol provided by Ambion (DNA-free kit). TaqMan probe and primers for PAIGB was identify using Primer Express computer program. The sequence for rat PAIGB TaqMan probe was 6FAM-5′[…] (SEQ ID NO: 16) forward and reverse primers were 5′[…] 3′ (SEQ ID NO:17) and 5′ […] 3′ (SEQ ID NO:18) respectively. The final concentrations for probes were 500 nM and 40 nM for PAIGB and 18S ribosomal RNA or GAPDH respectively. The concentrations of the primers were 500 nM for PAIGB forward and reversed primers while 18S primers were 10 and 20 nM for forward and reversed primer respectively or 40 nM for GAPDH primers. Standards for rat samples were made from rat tibia or brain RNA in the range of 250 ng to 0.1 ng, while standards for mouse specific TaqMan were made from mouse brain RNA and human standards from human brain RNA (Clonetech, Palo Alto, Calif.) spanning the same range of concentration. Primers and probes for mouse PAIGB were: forward 5′ […] 3′ (SEQ ID NO:19), reverse, 5′ […] (SEQ ID NO:21). Primers and probes for human PAIGB were: forward 5′ […] 3′ (SEQ ID NO:22), reverse 5′ […] 3′(SEQ ID NO: 24). The Taq-man analysis was done using ABI 7700 Sequence Detector under following conditions: 30 min at 48° C., 10 min at 95° C. and 40 cycles of 15 sec at 95° C. and 60 sec at 60° C. Analysis of real-time PCR analysis was performed using (Sequence Detector, Macintosh) program.
Five cell types were primarily used in our experiments. Rat osteoblast cell line (ROS 17/2.8) that expresses moderate levels of PTH receptor 1 (Rodan et al, Rev. Eukaryotic Gene Expression 1:85-98, 1991) were used to perform in vitro experiments. ROS cells were maintained under standard cell culture conditions: 10% heat inactivated FBS in Dulbecco's Modified Eagle Medium with Nutrient Mixture F-12 (DMEM/F12) media, 1% Penicillin/Streptomycin and 1% Glutamax. Mouse cell line C3H10T½ (ATCC# CCL226) as a representative of mouse osteoprogenitor cell line were maintained in Eagles Minimal Essential Media (EMEM) with the addition of 10% heat inactivated FBS and 1% Penicillin/Streptomycin and 1% Glutamax. UMR106 rat osteoblastic cells (ATCC# CRL1661) were cultured in Dulbecco's Modified Eagle Medium (DMEM) supplemented with 10% heat inactivated FBS, 1% Penicillin/Streptomycin and 1% Glutamax. The U2OS human osteoblastic cells (ATCC# HTB96) were cultured in McCoy's 5A Medium Modified supplemented with 10% FBS, 1% Penicillin/Streptomycin and 1% Glutamax. The human HOB-03-CE6 cell line (Bodine, V. N. P., et. al., J. Cell. Biochem., 65: 368-387,1997) was maintained in phenol red free DMEM/F12 media supplemented with 10% heat inactivated FBS and 1% Penicillin/Streptomycin and 1% Glutamax.
ROS 17/2.8 rat osteoblast cell line that express PTH receptor (˜80000 receptors/cell) were treated with increased doses of PTH: 1 nM, 10 nM, 100 nM and 1000 nM. Real time PCR using rat specific Taq-man probes and primers were used to examine the changes in PAIGB expression with PTH treatment.
Time course of PTH induction of PAIGB expression was examined. ROS 17/2.8_cells were treated with 10 nM PTH and RNA was harvested at 1, 2, 4, 6, 8 and 24 hours post treatment.

[2] = tested on: PAIGB expression in U2OS cells; test: RT-PCR and real time PCR of PAIGB expression in U2OS cells; type: cell-based, human; conditions: 1 or 10 nM
Experimental: RNA samples were subject to RT-PCR and Taq-man analysis using probe and primers to PAIGB polynucleotide sequences and GAPDH as well as 18S ribosomal RNA. RT-PCR was done using TaKaRa kit (Panvera, Shiga, Japan) according to manufacturer recommendation. RT reaction was done under following conditions: 30° C. for 10 min, 42° C. for 50 min, 99° C. for 5 min and 4° C. for 5 min. PCR conditions were: 94° C. for 5 min, 35 cycles of 94° C. for 2 min, 62° C. for 30″, 72° C. for 1 min and 30 sec, and 72° C. for 10 min. The PCR products were separated on 1% agarose gel.
Applicants performed multiplex real time PCR (TaqMan) analysis on previously DNAsed samples using gene specific probe and primers and 18S ribosomal RNA probe and primer sets purchased from Applied Biosystem. (Foster City, Calif.) The samples were DNAsed according to the protocol provided by Ambion (DNA-free kit). TaqMan probe and primers for PAIGB was identify using Primer Express computer program. The sequence for rat PAIGB TaqMan probe was 6FAM-5′[…] (SEQ ID NO: 16) forward and reverse primers were 5′[…] 3′ (SEQ ID NO:17) and 5′ […] 3′ (SEQ ID NO:18) respectively. The final concentrations for probes were 500 nM and 40 nM for PAIGB and 18S ribosomal RNA or GAPDH respectively. […]

Substance: human PTH (1-34)
- changes in PAIGB expression in brain, kidney and heart (PAIGB expression): did not produce any changes
- PAIGB message with increasing concentrations ([1]; 1 nM, 100 nM and 1000 nM): dose-dependent increase
- maximal increase of PAIGB expression ([1]; 4 hours time point): 2.66+/−0.3
- effect on PAIGB expression 8 hours post treatment ([1]; 8 hours): completely abolished
- induction of PAIGB expression ([1]; data not shown): 6 fold
- PAIGB expression in human U2OS osteoblastic cells [2]: induction
